From ChEMBL document CHEMBL3232801, “Oxidative stress in Alzheimer's disease: are we connecting the dots?” (J Med Chem, 2014)

Experiments:
Acetylcholinesterase [1] = target: T1, Acetylcholinesterase (Homo sapiens, UniProt P22303); assay: Inhibition of AChE (unknown origin)-mediated amyloid beta aggregation at 100 uM
[2] = target: T2, Amyloid-beta precursor protein (Homo sapiens, UniProt P05067); assay: Inhibition of amyloid beta (unknown origin) aggregation
Acetylcholinesterase [3] = target: T1, Acetylcholinesterase; assay: Inhibition of AChE (unknown origin)
[4] = target: T2, Amyloid-beta precursor protein; assay: Inhibition of amyloid beta (unknown origin) aggregation at 25 uM
[5] = target: T2, Amyloid-beta precursor protein; assay: Inhibition of amyloid beta (unknown origin) aggregation at 10 uM
Acetylcholinesterase [6] = target: T1, Acetylcholinesterase; assay: Inhibition of AChE (unknown origin) assessed as inhibition of ROS production

T2 sequence (P05067 whole entry): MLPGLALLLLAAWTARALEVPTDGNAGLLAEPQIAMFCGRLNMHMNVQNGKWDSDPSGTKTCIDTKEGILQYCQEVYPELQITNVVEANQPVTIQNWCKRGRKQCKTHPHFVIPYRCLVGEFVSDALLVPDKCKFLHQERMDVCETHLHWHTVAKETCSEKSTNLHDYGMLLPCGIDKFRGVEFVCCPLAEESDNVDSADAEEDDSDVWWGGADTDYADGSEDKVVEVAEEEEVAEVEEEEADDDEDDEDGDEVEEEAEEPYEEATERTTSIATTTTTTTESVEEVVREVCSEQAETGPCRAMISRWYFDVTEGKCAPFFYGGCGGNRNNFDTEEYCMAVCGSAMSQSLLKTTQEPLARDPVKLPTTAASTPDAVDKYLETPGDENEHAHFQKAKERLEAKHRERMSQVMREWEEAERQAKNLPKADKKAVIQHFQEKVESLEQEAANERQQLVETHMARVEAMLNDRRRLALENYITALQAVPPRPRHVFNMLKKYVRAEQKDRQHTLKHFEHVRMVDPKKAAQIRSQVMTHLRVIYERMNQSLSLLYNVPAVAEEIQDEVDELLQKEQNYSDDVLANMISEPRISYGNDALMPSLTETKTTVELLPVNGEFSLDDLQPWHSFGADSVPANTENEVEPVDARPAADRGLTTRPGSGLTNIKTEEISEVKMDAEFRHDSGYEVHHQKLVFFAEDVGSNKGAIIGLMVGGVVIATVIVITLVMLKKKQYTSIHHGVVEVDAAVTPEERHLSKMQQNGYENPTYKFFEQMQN
T1 sequence (P22303 whole entry): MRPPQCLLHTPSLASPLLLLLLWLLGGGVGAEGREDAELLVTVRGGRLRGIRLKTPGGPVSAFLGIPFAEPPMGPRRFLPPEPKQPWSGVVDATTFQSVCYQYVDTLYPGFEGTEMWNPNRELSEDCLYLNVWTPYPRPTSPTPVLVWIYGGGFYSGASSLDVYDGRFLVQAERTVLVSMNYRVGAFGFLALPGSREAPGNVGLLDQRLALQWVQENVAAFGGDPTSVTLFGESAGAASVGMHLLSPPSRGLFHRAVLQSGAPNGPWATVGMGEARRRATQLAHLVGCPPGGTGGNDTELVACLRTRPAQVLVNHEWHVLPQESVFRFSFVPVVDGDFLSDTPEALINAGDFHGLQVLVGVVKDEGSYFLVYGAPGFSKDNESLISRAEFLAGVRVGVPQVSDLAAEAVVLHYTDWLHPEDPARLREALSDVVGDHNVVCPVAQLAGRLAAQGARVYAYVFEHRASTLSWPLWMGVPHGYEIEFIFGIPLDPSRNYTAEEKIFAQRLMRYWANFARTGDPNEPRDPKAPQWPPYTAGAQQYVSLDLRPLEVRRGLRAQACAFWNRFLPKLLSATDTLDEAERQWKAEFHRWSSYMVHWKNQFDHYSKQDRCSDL

| SMILES | inhibition (Acetylcholinesterase [1]) | IC50 [2] | IC50 (Acetylcholinesterase [3]) | inhibition [4] | inhibition [5] | IC50 (Acetylcholinesterase [6]) |
| --- | --- | --- | --- | --- | --- | --- |
| c1ccc2c(NCCSSCCNc3c4c(nc5ccccc35)CCCC4)c3c(nc2c1)CCCC3 | 52.6% | 24200 nM | 5.04 nM |  |  |  |
| COc1cc(/C=C/C(=O)NCCCCCCNc2c3c(nc4ccccc24)CCCC3)ccc1O |  |  | 11.6 nM | 100% |  |  |
| O=C(CCCOc1cccc2[nH]c3ccccc3c12)NCCCNc1c2c(nc3ccccc13)CCCC2 | 57.7% |  | 2.15 nM |  | 36% | 23000 nM |
